Laboratory results reported in paper PMC11413854, “Reversible Control of Native GluN2B-Containing NMDA Receptors with Visible Light” (ACS Chemical Neuroscience, 2024).
Several values for one entry are separate records, joined by “and”; a condition that tells them apart may be missing. Equal values may be shown once.

Test system: Xenopus laevis tadpoles
Assay: Behavioral test: locomotion of free-swimming tadpoles under light cycles
Type: in vivo
Conditions: for reduction in locomotor activity in the dark vs baseline / Normalized travelled distance by tadpoles (/baseline/control), mean: 5 µM; for reduction in locomotor activity in the dark vs baseline: 45 min incubation; for Normalized travelled distance by tadpoles (/baseline): per well (mean of 3 tadpoles)
Method: In our behavioral assay, tadpoles were placed in groups of three animals per well of a 12-well plate allowing them to swim freely. Their baseline locomotion was recorded for 3 min in the dark, after which they were incubated for 45 min in a solution containing either 0.1% DMSO (control) or 5 μM OptoNAM-3 (refer to Methods and Figure S5A for details). For each condition (control and OptoNAM-3), tadpole locomotion was recorded for 3 min in the dark, followed by cycles of 1 min illumination at 365 nm and then 550 nm, and interspersed with 3 min rest periods to avoid bias due to a poststimulation refractory period[51],[56] (Figure S5A). We also conducted the same protocol using 460/550 nm light cycles, as OptoNAM-3 can switch from the trans to cis state upon exposure to blue light at 460 nm when pre-equilibrated on cells (see above). The tadpole traveled distance was calculated from precise position coordinates of tadpole body parts across frames, assessed by automatic position multianimal tracking using the open-source program DeepLabCut.[57],[58]Xenopus laevis tadpoles present nonvisual photoreceptors that generate a photomotor response characterized by an increase of activity upon UV light illumination.[59] We indeed observed an increase in tadpole locomotion with UV and blue light compared to 550 nm light in the control condition (∼1.5-fold, Figures 6A,B and S5B,C, gray points). The photodependent effect of OptoNAM-3 on locomotion was therefore quantified by calculating the traveled distance normalized twice: by the tadpole baseline locomotion (to decrease interindividual variability linked to the locomotion speed) and, for each condition, by the locomotion of the control group (to remove the nonspecific effect of UV or blue light). […] Their locomotion could be restored to baseline activity with UV or blue light and inhibited again by 550 nm light for two cycles (Figure 6C,D and Movies S1 and S2). Consequently, OptoNAM-3 enabled fast and reversible control of tadpole locomotion using light. In addition, the compound red-shifted properties observed in vitro were conserved in vivo. OptoNAM-3 therefore holds great promise to photocontrol native GluN2B-NMDARs with the high biocompatibility of red-shifted photoswitches.[29],[31]
Xenopus laevis embryos were obtained from the European Xenopus Resource Centre (EXRC, Portsmouth, UK) or TEFOR Paris Sackay (Saclay, France), maintained in Modified Barth’s Saline (MBS) 0.1× (pH adjusted to 7.8 with NaOH), and supplemented with 10 μg/mL of gentamicin, in 10 cm Petri dishes with a maximum of 50 tadpoles per dish. The embryos were stored at 18 °C until they reached stage 49 (12–14 days postfertilization).[86] Experiments on Xenopus tadpoles were performed according to European Union guidelines (project authorization Apafis #44976–2023092616413977)
For the experiments (see Figure S5A), stage 49 X. laevis tadpoles were placed in the center of a 12-well plate at a density of three animals per well in 0.1× MBS. The 12-well plate was covered with a 3D-printed dome equipped with a liquid guide (15 cm) connected to a multichannel LED delivery system (CoolLed pE-4000) at the top. The plate was positioned on optical cast plastic infrared filters, which allowed only wavelengths above 650 nm to pass, and red light (770 nm at 15% intensity) was continuously applied during recording to enable video recording in the dark. […] Subsequently, the tadpoles were incubated in the dark for 30 min in a 60 × 15 mm Petri dish containing 5 mL of either the vehicle (0.1% DMSO in MBS 0.1×) or OptoNAM-3 solution (5 μM in MBS 0.1×) to facilitate drug penetration. Afterward, the tadpoles were transferred back to the 12-well plate, which contained either the vehicle solution or OptoNAM-3 (5 μM), and habituation to red light was performed again for 15 min. […]

[1] = Sup. Fig. 5B, UV/green cycles, second data block (c27-c50), raw

c1ccc(/N=N/c2ccc(CCNc3ccncc3)cc2)cc1 [OptoNAM-3, (E)-N-(4-(Phenyldiazenyl)phenethyl)pyridin-4-amine]
reduction in locomotor activity in the dark vs baseline (UV/visible cycle protocol group): 35%
reduction in locomotor activity in the dark vs baseline (blue/green cycle protocol group): 50%
Normalized travelled distance by tadpoles (/baseline/control), mean (Fig 6C, 365 nm (1), UV/green light cycle experiment): 1.089
Normalized travelled distance by tadpoles (/baseline/control), mean (Fig 6C, 365 nm (2), UV/green light cycle experiment): 0.883
Normalized travelled distance by tadpoles (/baseline/control), mean (Fig 6C, 550 nm (1), UV/green light cycle experiment): 0.484
Normalized travelled distance by tadpoles (/baseline/control), mean (Fig 6C, 550 nm (2), UV/green light cycle experiment): 0.221
Normalized travelled distance by tadpoles (/baseline/control), mean (Fig 6C, dark, UV/green light cycle experiment): 0.649
Normalized travelled distance by tadpoles (/baseline/control), mean (Fig 6D, 460 nm (1), blue/green light cycle experiment): 2.548
Normalized travelled distance by tadpoles (/baseline/control), mean (Fig 6D, 460 nm (2), blue/green light cycle experiment): 2.278
Normalized travelled distance by tadpoles (/baseline/control), mean (Fig 6D, 550 nm (1), blue/green light cycle experiment): 0.587
Normalized travelled distance by tadpoles (/baseline/control), mean (Fig 6D, 550 nm (2), blue/green light cycle experiment): 0.462
Normalized travelled distance by tadpoles (/baseline/control), mean (Fig 6D, dark, blue/green light cycle experiment): 0.509
Distance in mm, well mean of 3 tadpoles, uv 1 min (Sup. Fig. 5B, UV/green cycles, first data block (c1-c24), raw): 543.756 mm and 730.486 mm and 588.764 mm and 724.010 mm and 734.699 mm and 651.720 mm and 525.360 mm and 469.552 mm
Distance in mm, well mean of 3 tadpoles, green2 1 min [1]: 28.734 mm and 47.149 mm and 41.068 mm and 52.900 mm and 46.164 mm and 30.050 mm and 28.925 mm and 43.119 mm
Distance in mm, well mean of 3 tadpoles, uv 1 min [1]: 636.734 mm and 582.355 mm and 684.728 mm and 679.263 mm and 728.479 mm and 513.366 mm and 700.914 mm and 476.462 mm
Normalized travelled distance by tadpoles (/baseline), single well (Sup. Fig. 5B, 365 nm (1), individual wells): 1.393 and 3.082 and 2.491 and 2.557 and 3.849 and 6.596 and 1.808 and 1.431 and 6.280 and 5.411 and 9.003 and 6.422 and 6.492
Normalized travelled distance by tadpoles (/baseline), mean (Sup. Fig. 5B, 365 nm (1), mean of 16 wells): 4.878
Normalized travelled distance by tadpoles (/baseline), single well (Sup. Fig. 5B, 365 nm (2), individual wells): 1.002 and 2.077 and 1.181 and 1.514 and 2.542 and 5.415 and 1.765 and 1.460 and 5.497 and 4.718 and 10.726 and 5.196 and 4.515
Normalized travelled distance by tadpoles (/baseline), mean (Sup. Fig. 5B, 365 nm (2), mean of 16 wells): 4.635
Normalized travelled distance by tadpoles (/baseline), single well (Sup. Fig. 5B, 550 nm (1), individual wells): 0.458 and 1.858 and 0.896 and 0.456 and 0.161 and 0.143 and 0.389 and 0.051 and 0.457 and 0.356 and 0.468 and 0.574 and 0.522
Normalized travelled distance by tadpoles (/baseline), mean (Sup. Fig. 5B, 550 nm (1), mean of 16 wells): 0.561
Normalized travelled distance by tadpoles (/baseline), single well (Sup. Fig. 5B, 550 nm (2), individual wells): 0.073 and 0.057 and 0.075 and 0.047 and 0.119 and 0.187 and 0.194 and 0.072 and 0.283 and 0.438 and 0.540 and 0.500 and 0.411
Normalized travelled distance by tadpoles (/baseline), mean (Sup. Fig. 5B, 550 nm (2), mean of 16 wells): 0.274
Normalized travelled distance by tadpoles (/baseline), single well (Sup. Fig. 5B, dark, individual wells (each well is the mean of 3 tadpole)): 0.095 and 0.145 and 0.255 and 0.231 and 0.246 and 0.190 and 0.129 and 0.073 and 0.384 and 0.405 and 0.424 and 0.476 and 0.614
Normalized travelled distance by tadpoles (/baseline), mean (Sup. Fig. 5B, dark, mean of 16 wells (each well is the mean of 3 tadpole)): 0.393
Normalized travelled distance by tadpoles (/baseline) (Sup. Fig. 5B, dark): 0.643 and 0.955 and 1.031
Normalized travelled distance by tadpoles (/baeline/control), single well (Sup. Fig. 5C, 460 nm (1), individual wells): 1.914 and 1.376 and 8.550 and 2.480 and 4.315 and 7.810 and 5.706 and 5.046 and 11.224 and 1.065 and 13.799 and 8.327 and 1.491
Normalized travelled distance by tadpoles (/baeline/control), mean (Sup. Fig. 5C, 460 nm (1), mean of 17 wells): 6.279
Normalized travelled distance by tadpoles (/baeline/control), single well (Sup. Fig. 5C, 460 nm (2), individual wells): 2.036 and 1.506 and 10.137 and 2.268 and 4.306 and 11.041 and 6.016 and 15.287 and 9.339 and 1.297 and 11.889 and 4.687 and 3.893
Normalized travelled distance by tadpoles (/baeline/control), mean (Sup. Fig. 5C, 460 nm (2), mean of 17 wells): 6.476
Normalized travelled distance by tadpoles (/baseline) (Sup. Fig. 5C, 460 nm (2)): 8.083 and 4.823 and 6.568 and 6.920
Normalized travelled distance by tadpoles (/baeline/control), single well (Sup. Fig. 5C, 550 nm (1), individual wells): 0.384 and 0.350 and 1.155 and 0.578 and 0.301 and 1.159 and 2.310 and 0.844 and 0.446 and 0.287 and 2.947 and 0.796 and 0.259
Normalized travelled distance by tadpoles (/baeline/control), mean (Sup. Fig. 5C, 550 nm (1), mean of 17 wells): 0.899
Normalized travelled distance by tadpoles (/baeline/control), single well (Sup. Fig. 5C, 550 nm (2), individual wells): 0.201 and 0.140 and 0.631 and 0.384 and 0.385 and 0.939 and 0.448 and 0.727 and 1.019 and 0.143 and 0.892 and 1.756 and 0.609
Normalized travelled distance by tadpoles (/baeline/control), mean (Sup. Fig. 5C, 550 nm (2), mean of 17 wells): 0.702
Normalized travelled distance by tadpoles (/baseline) (Sup. Fig. 5C, 550 nm (2)): 1.231 and 0.815 and 0.780 and 0.842
Normalized travelled distance by tadpoles (/baeline/control), single well (Sup. Fig. 5C, dark, individual wells (each well is the mean of 3 tadpole)): 0.118 and 0.080 and 0.825 and 0.228 and 0.352 and 1.330 and 0.587 and 0.877 and 0.773 and 0.144 and 0.553 and 0.717 and 0.589
Normalized travelled distance by tadpoles (/baeline/control), mean (Sup. Fig. 5C, dark, mean of 17 wells (each well is the mean of 3 tadpole)): 0.520
Normalized travelled distance by tadpoles (/baseline) (Sup. Fig. 5C, dark): 0.453 and 0.357 and 0.524 and 0.331
